Results published in the CheMixHub viscosity set.

Test: xn = mol fraction of the nth substance listed

BrC(Br)Br + CCCCCCC(C)O
viscosity [mPa·s], 101.3 kPa
Conditions | x1 = 0.104 | x1 = 0.199 | x1 = 0.3 | x1 = 0.403 | x1 = 0.502 | x1 = 0.603 | x1 = 0.704 | x1 = 0.801 | x1 = 0.899
298.15 K | 5.244 | 4.606 | 3.91 | 3.391 | 2.965 | 2.623 | 2.337 | 2.123 | 1.969
303.15 K | 4.336 | 3.855 | 3.348 | 2.937 | 2.594 | 2.335 | 2.104 | 1.943 | 1.83
308.15 K | 3.625 | 3.274 | 2.894 | 2.566 | 2.288 | 2.084 | 1.913 | 1.785 | 1.698

BrC(Br)Br + Brc1ccccc1
viscosity [mPa·s]
Conditions | x1 = 0.1693 | x1 = 0.1837 | x1 = 0.3354 | x1 = 0.3369 | x1 = 0.5411 | x1 = 0.5417 | x1 = 0.6863 | x1 = 0.6869 | x1 = 0.8606 | x1 = 0.871
298 K, 101.3 kPa | – | 1.207 | – | 1.333 | – | 1.51 | – | 1.627 | 1.769 | –
318 K, 101.33 kPa | 0.9504 | – | 1.051 | – | 1.179 | – | 1.272 | – | – | 1.396

C=Cc1ccccc1 + CS(C)=O
viscosity [mPa·s], 101.33 kPa
Conditions | x1 = 0.1017 | x1 = 0.2022 | x1 = 0.3096 | x1 = 0.3987 | x1 = 0.501 | x1 = 0.6007 | x1 = 0.6968 | x1 = 0.801 | x1 = 0.896
298.15 K | 1.642 | 1.475 | 1.326 | 1.237 | 1.139 | 1.058 | 0.982 | 0.887 | 0.802
303.15 K | 1.482 | 1.343 | 1.191 | 1.112 | 1.044 | 0.976 | 0.91 | 0.827 | 0.749
308.15 K | 1.335 | 1.204 | 1.083 | 1.014 | 0.957 | 0.899 | 0.837 | 0.763 | 0.7

CCCCCCCCO + C1CCCCC1
Conditions | viscosity [mPa·s]
293.15 K, 100 kPa, x2 = 0.0821 | 7.85
293.15 K, 100 kPa, x2 = 0.1596 | 6.77
293.15 K, 100 kPa, x2 = 0.2413 | 5.78
293.15 K, 100 kPa, x2 = 0.3502 | 4.63
293.15 K, 100 kPa, x2 = 0.4402 | 3.78
293.15 K, 100 kPa, x2 = 0.5611 | 2.83
293.15 K, 100 kPa, x2 = 0.6512 | 2.26
293.15 K, 100 kPa, x2 = 0.7501 | 1.79
293.15 K, 100 kPa, x2 = 0.8503 | 1.38
293.15 K, 100 kPa, x2 = 0.9396 | 1.11
303.15 K, 100 kPa, x2 = 0.0821 | 5.56
303.15 K, 100 kPa, x2 = 0.1596 | 4.83
303.15 K, 100 kPa, x2 = 0.2413 | 4.15
303.15 K, 100 kPa, x2 = 0.3502 | 3.33
303.15 K, 100 kPa, x2 = 0.4402 | 2.73
303.15 K, 100 kPa, x2 = 0.5611 | 2.08
303.15 K, 100 kPa, x2 = 0.6512 | 1.72
303.15 K, 100 kPa, x2 = 0.7501 | 1.4
303.15 K, 100 kPa, x2 = 0.8503 | 1.12
303.15 K, 100 kPa, x2 = 0.9396 | 0.92
303.15 K, 101.33 kPa, x1 = 0.1206 | 1.057
303.15 K, 101.33 kPa, x1 = 0.221 | 1.301
303.15 K, 101.33 kPa, x1 = 0.2975 | 1.52
303.15 K, 101.33 kPa, x1 = 0.3517 | 1.697
303.15 K, 101.33 kPa, x1 = 0.4355 | 2.023
303.15 K, 101.33 kPa, x1 = 0.5414 | 2.518
303.15 K, 101.33 kPa, x1 = 0.608 | 2.869
303.15 K, 101.33 kPa, x1 = 0.755 | 3.829
303.15 K, 101.33 kPa, x1 = 0.8637 | 4.746
308 K, 101 kPa, x2 = 0.1494 | 4.134
308 K, 101 kPa, x2 = 0.2768 | 3.348
308 K, 101 kPa, x2 = 0.3962 | 2.659
308 K, 101 kPa, x2 = 0.5076 | 2.09
308 K, 101 kPa, x2 = 0.6146 | 1.64
308 K, 101 kPa, x2 = 0.7054 | 1.36
308 K, 101 kPa, x2 = 0.7911 | 1.132
308 K, 101 kPa, x2 = 0.8587 | 0.96
308 K, 101 kPa, x2 = 0.9354 | 0.828
313.15 K, 100 kPa, x2 = 0.0821 | 4.06
313.15 K, 100 kPa, x2 = 0.1596 | 3.56
313.15 K, 100 kPa, x2 = 0.2413 | 3.09
313.15 K, 100 kPa, x2 = 0.3502 | 2.52
313.15 K, 100 kPa, x2 = 0.4402 | 2.1
313.15 K, 100 kPa, x2 = 0.5611 | 1.65
313.15 K, 100 kPa, x2 = 0.6512 | 1.37
313.15 K, 100 kPa, x2 = 0.7501 | 1.14
313.15 K, 100 kPa, x2 = 0.8503 | 0.9
313.15 K, 100 kPa, x2 = 0.9396 | 0.78
323.15 K, 100 kPa, x2 = 0.0821 | 3.03
323.15 K, 100 kPa, x2 = 0.1596 | 2.65
323.15 K, 100 kPa, x2 = 0.2413 | 2.31
323.15 K, 100 kPa, x2 = 0.3502 | 1.93
323.15 K, 100 kPa, x2 = 0.4402 | 1.66
323.15 K, 100 kPa, x2 = 0.5611 | 1.34
323.15 K, 100 kPa, x2 = 0.6512 | 1.13
323.15 K, 100 kPa, x2 = 0.7501 | 0.95
323.15 K, 100 kPa, x2 = 0.8503 | 0.77
323.15 K, 100 kPa, x2 = 0.9396 | 0.66

C=Cc1ccccc1 + CCCCCCO
viscosity [mPa·s], 101.33 kPa
Conditions | x1 = 0.0998 | x1 = 0.2024 | x1 = 0.3078 | x1 = 0.4006 | x1 = 0.5007 | x1 = 0.5988 | x1 = 0.6993 | x1 = 0.7986 | x1 = 0.8985
298.15 K | 3.131 | 2.522 | 1.956 | 1.613 | 1.293 | 1.134 | 0.972 | 0.891 | 0.808
303.15 K | 2.773 | 2.177 | 1.703 | 1.446 | 1.154 | 1.051 | 0.89 | 0.84 | 0.747
308.15 K | 2.296 | 1.88 | 1.497 | 1.298 | 1.114 | 1.008 | 0.86 | 0.81 | 0.693

BrC(Br)Br + OCCCl
viscosity [mPa·s], 101.3 kPa
Conditions | x1 = 0.099 | x1 = 0.198 | x1 = 0.301 | x1 = 0.396 | x1 = 0.498 | x1 = 0.595 | x1 = 0.702 | x1 = 0.801 | x1 = 0.896
298.15 K | 2.878 | 2.817 | 2.587 | 2.446 | 2.3 | 2.179 | 2.067 | 1.97 | 1.915
303.15 K | 2.532 | 2.487 | 2.297 | 2.191 | 2.08 | 1.982 | 1.89 | 1.825 | 1.779
308.15 K | 2.237 | 2.21 | 2.055 | 1.974 | 1.884 | 1.814 | 1.746 | 1.694 | 1.666
